In patent US20080076711A1, “Therapeutic agents for osteopenia” (Chugai Seiyaku Kabushiki Kaisha, priority 2001, published 2008):

How the values were obtained:
Type in all cases: in vivo, mouse
[1] = tested on: OPN knockout (OPN-KO) mice; assay: BFR and MAR in cancellous bone (distal end of femur) after PTH treatment, OPN-KO mice
Method: (§1) BFR denotes bone formation rate per unit trabecular area (μm^3/μm^2/day).
(§2) MAR denotes the rate of increase in the distance between labeled calcified bands (μm/day).
In the case of cancellous bone, decalcified sagittal sections were prepared from the metaphyseal region and analyzed for BFR and MAR in a 1.4 mm^2 square area located 0.2 mm apart from the growth plate of the distal end of femur. Labeling was accomplished by subcutaneous administration of xylenol orange (100 mg/kg of body weight) 4 days before and calcein 2 days before sampling.
(§3) To create an animal model in which the in vivo effects of OPN were inhibited, strain 129 female mice at 7 weeks of age were modified into knockout mice deficient in the OPN gene (OPN-KO mice), as described in Rittling et al. J. Bone Miner. Res., 13: 1101-1111, 1998. These mice were singly used for PTH treatment test. They were divided into groups of 6 mice each.
(§4) Recombinant human PTH(1-34) (Bachem, Torrance, Calif.) was dissolved in acidified physiological saline supplemented with 0.1% bovine serum albumin (Sigma Chemical Co.-Aldrich, St. Louis, Mo.). The OPN-KO mice were subcutaneously administered with 80 μg/kg of body weight human PTH(1-34) for 4 weeks on a five-days-a-week basis. Mice in the control group were administered with physiological saline alone.

[2] = tested on: wild-type strain 129 female mice; assay: BFR and MAR in cortical bone (femoral mid-diaphysis) after PTH treatment, wild-type mice; settings: WT mice
Method: In the case of cortical bone, decalcified horizontal sections (serial sections of 3 μm thickness) were prepared from the femoral mid-diaphysis and analyzed for BFR and MAR in the periosteal and endosteal regions. More specifically, a calcium chelator calcein (4 mg/kg of body weight) was subcutaneously administered 9 days and 2 days before sampling and the interval between two labeled bands was determined under a fluorescence microscope to calculate BFR and MAR. BFR denotes bone formation rate per unit trabecular area (μm^3/μm^2/day). MAR denotes the rate of increase in the distance between labeled calcified bands (μm/day). Recombinant human PTH(1-34) (Bachem, Torrance, Calif.) was dissolved in acidified physiological saline supplemented with 0.1% bovine serum albumin (Sigma Chemical Co.-Aldrich, St. Louis, Mo.). The OPN-KO mice were subcutaneously administered with 80 μg/kg of body weight human PTH(1-34) for 4 weeks on a five-days-a-week basis. Mice in the control group were administered with physiological saline alone. The effect of PTH on bone metabolism was also examined in the same manner as shown in Example 1, using wild-type strain 129 female mice (7 weeks of age). These mice were divided into groups of 6 mice each.

[3] = tested on: OPN knockout (OPN-KO) mice; assay: BFR and MAR in cortical bone (femoral mid-diaphysis) after PTH treatment, OPN-KO mice
Method: In the case of cortical bone, decalcified horizontal sections (serial sections of 3 μm thickness) were prepared from the femoral mid-diaphysis and analyzed for BFR and MAR in the periosteal and endosteal regions. More specifically, a calcium chelator calcein (4 mg/kg of body weight) was subcutaneously administered 9 days and 2 days before sampling and the interval between two labeled bands was determined under a fluorescence microscope to calculate BFR and MAR.
as §1, §2, §3, §4

[4] = tested on: wild-type strain 129 female mice; assay: Determination of TRAP-positive cells (osteoclasts) after PTH treatment, wild-type mice; settings: WT mice, PTH(+) group, 80 μg/kg s.c., 4 weeks
Method: After treatment with PTH, forefoot bone was excised from each animal. Each bone was rinsed with PBS, fixed for 7 days in 4% paraformaldehyde acid and decalcified for 3 days in 10% EDTA (pH 7.4), followed by dehydration and embedding in paraffin. Serial sections of 7 μm thickness were prepared from paraffin blocks and stained to measure TRAP (tartrate resistant acid phosphatase) activity, with Alcian blue for counter-staining. Among TRAP-positive cells attached to cancellous bone, those having at least three nuclei were counted using 15 serial sections of 7 μm thickness prepared from each bone. Each of the 15 sections was taken at five-section intervals from a total of 75 sections per bone. The number of multinucleated TRAP-positive cells in all 15 sections was summed to give the total number of osteoclasts per unit trabecular perimeter. Recombinant human PTH(1-34) (Bachem, Torrance, Calif.) was dissolved in acidified physiological saline supplemented with 0.1% bovine serum albumin (Sigma Chemical Co.-Aldrich, St. Louis, Mo.). The OPN-KO mice were subcutaneously administered with 80 μg/kg of body weight human PTH(1-34) for 4 weeks on a five-days-a-week basis. Mice in the control group were administered with physiological saline alone. The effect of PTH on bone metabolism was also examined in the same manner as shown in Example 1, using wild-type strain 129 female mice (7 weeks of age). […]

[5] = tested on: wild-type strain 129 female mice; assay: Analysis of urinary deoxypyridinoline (Dpyr) after PTH treatment, wild-type mice; settings: WT mice
Method: At 26 days after treatment with PTH, a 24-hour urine sample was collected from each mouse (10 samples per group). As a marker of bone metabolism, the level of urinary deoxypyridinoline (Dpyr) was measured for each sample using an ELISA kit (Metra Biosystems, San Diego, Calif.) in accordance with the manufacturer's protocol. Recombinant human PTH(1-34) (Bachem, Torrance, Calif.) was dissolved in acidified physiological saline supplemented with 0.1% bovine serum albumin (Sigma Chemical Co.-Aldrich, St. Louis, Mo.). The OPN-KO mice were subcutaneously administered with 80 μg/kg of body weight human PTH(1-34) for 4 weeks on a five-days-a-week basis. Mice in the control group were administered with physiological saline alone. The effect of PTH on bone metabolism was also examined in the same manner as shown in Example 1, using wild-type strain 129 female mice (7 weeks of age). These mice were divided into groups of 6 mice each.

[6] = OPN-KO mice, PTH(+) group, 80 μg/kg s.c., 4 weeks, distal end of femur
[7] = OPN-KO mice, PTH(+) vs PTH(−) group, p<0.05
[8] = cancellous bone, OPN-KO vs WT mice, p<0.05
[9] = PTH(+) group, 80 μg/kg s.c., 4 weeks
[10] = PTH(+) vs PTH(−) group, significant inhibition of bone formation (p<0.05)

human PTH(1-34)
BFR in cancellous bone [1, 6]: 2.68±0.34 μm^3/μm^2/day
MAR in cancellous bone [1, 6]: 6.21±1.11 μm/day
fold increase in cancellous BFR by PTH treatment [1, 7]: ~2.1 fold
fold increase in cancellous MAR by PTH treatment [1, 7]: ~1.7 fold
elevation in the magnitude of PTH-induced increase in BFR caused by lack of OPN [1, 8]: ~1.3 fold
elevation in the magnitude of PTH-induced increase in MAR caused by lack of OPN [1, 8]: about 1.4 fold
endosteal BFR, cortical bone [2, 9]: 1.37±0.18 μm^3/μm^2/day
endosteal MAR, cortical bone [2, 9]: 2.44±0.29 μm/day
periosteal BFR, cortical bone [2, 9]: 1.07±0.08 μm^3/μ^2/day
periosteal MAR, cortical bone [2, 9]: 2.05±0.21 μm/day
fold increase in endosteal BFR by PTH treatment ([2]; PTH(+) vs PTH(−) group, p<0.05): about 1.8 fold
fold increase in endosteal MAR by PTH treatment ([2]; PTH(+) vs PTH(−) group, p<0.05): ~1.5 fold
fold increase in periosteal BFR by PTH treatment [2, 10]: ~0.6 fold
fold increase in periosteal MAR by PTH treatment [2, 10]: ~0.7 fold
endosteal BFR, cortical bone [3, 9]: 0.62±0.09 μm^3/μm^2/day
endosteal MAR, cortical bone [3, 9]: 1.33±0.28 μm/day
periosteal BFR (bone formation rate), cortical bone [3, 9]: 2.38±0.18 μm^3/μm^2/day
periosteal MAR (mineral apposition rate), cortical bone [3, 9]: 2.97±0.25 μm/day
effect of PTH treatment on endosteal BFR and MAR ([3]; PTH(+) vs PTH(−) group): little effect
fold increase in periosteal BFR by PTH treatment ([3]; PTH(+) vs PTH(−) group, p<0.05): ~1.8 fold
fold increase in periosteal MAR by PTH treatment ([3]; PTH(+) vs PTH(−) group, p<0.05): ~1.2 fold
number of osteoclasts per unit trabecular perimeter of cancellous bone trabeculae [4]: 9.2±1.8 cells/mm
urinary Dpyr level ([5]; PTH(+) group, 24-hour urine at 26 days): 34.86±6.90 nM/mM Cr
fold increase in systemic bone resorption (urinary Dpyr) by PTH treatment ([5]; PTH(+) vs PTH(−) group, p<0.05): ~1.2 fold
